Toxic doses and inconclusive results are not listed.
Tested on: L1210 leukemia ip in BDF1 mice, survival T/C
Assay: NCI In Vivo Anticancer Drug Screen. Data for tumor model L1210 Leukemia (intraperitoneal) in B6D2F1 (BDF1) mice
Details: endpoint: mean survival time, higher = longer survival
Procedure, shortened: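 Antitumor effect is assessed in tumor-bearing animals. Survival in the compound arm is compared with a vehicle-dosed control arm and expressed as their quotient.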

[1] = dose: 100.0 mg/kg/injection, schedule: Q01DX009 (ip), vehicle: saline with Tween-80
[2] = dose: 100.0 mg/kg/injection, schedule: Q04DX003 (ip), vehicle: saline with Tween-80
[3] = dose: 200.0 mg/kg/injection, schedule: Q01DX009 (ip), vehicle: saline with Tween-80
[4] = dose: 200.0 mg/kg/injection, schedule: Q04DX003 (ip), vehicle: saline with Tween-80
[5] = dose: 400.0 mg/kg/injection, schedule: Q01DX009 (ip), vehicle: saline with Tween-80
[6] = dose: 400.0 mg/kg/injection, schedule: Q04DX003 (ip), vehicle: saline with Tween-80
[7] = dose: 100.0 mg/kg/injection, schedule: Q04DX002 (ip), vehicle: Klucel (hydroxypropylcellulose) (HPC)
[8] = dose: 200.0 mg/kg/injection, schedule: Q04DX002 (ip), vehicle: Klucel (hydroxypropylcellulose) (HPC)
[9] = dose: 400.0 mg/kg/injection, schedule: Q04DX002 (ip), vehicle: Klucel (hydroxypropylcellulose) (HPC)
[10] = dose: 100.0 mg/kg/injection, schedule: Q04DX003 (ip), vehicle: Klucel (hydroxypropylcellulose) (HPC)
[11] = dose: 200.0 mg/kg/injection, schedule: Q04DX003 (ip), vehicle: Klucel (hydroxypropylcellulose) (HPC)
[12] = dose: 400.0 mg/kg/injection, schedule: Q04DX003 (ip), vehicle: Klucel (hydroxypropylcellulose) (HPC)
[13] = dose: 100.0 mg/kg/injection, schedule: Q01DX009 (ip), vehicle: Klucel (hydroxypropylcellulose) (HPC)
[14] = dose: 200.0 mg/kg/injection, schedule: Q01DX009 (ip), vehicle: Klucel (hydroxypropylcellulose) (HPC)
[15] = dose: 400.0 mg/kg/injection, schedule: Q01DX009 (ip), vehicle: Klucel (hydroxypropylcellulose) (HPC)

For `CC(=O)CC(=O)NC1CCCCC1`, which T/C [1] is on record?
Its T/C is 105 % of control.

And the T/C [2]?
The T/C was 96 % of control.

And the T/C [3]?
Its T/C is 100 % of control.

What about the T/C [4] of the same compound?
The T/C was 94 % of control.

And the T/C [5]?
Its T/C is 95 % of control.

What about the T/C [6] of the same compound?
Its T/C is 94 % of control.

What does the source list for `CC(=O)Oc1ccc(C2OC(=O)c3ccccc3N2C(C)=O)cc1` (centres undefined)?
T/C [1]: 101 % of control; T/C [3]: 101 % of control; T/C [5]: 92 % of control

Which T/C [7] does the source give for `CCNc1nc(Cl)nc(C(Cl)(Cl)Cl)c1Cl` (tested in a mixture with another compound) here?
Its T/C is 104 % of control.

And the T/C [8]?
The T/C was 96 % of control.

And the T/C [9]?
Its T/C is 100 % of control.

How did the T/C (dose: 50.0 mg/kg/injection, schedule: Q01DX001 (ip), vehicle: saline) turn out when `CCC(C)C(C)CO` (centres undefined) was run?
Its T/C is 108 % of control.

What about the T/C (dose: 100.0 mg/kg/injection, schedule: Q01DX001 (ip), vehicle: saline) of the same compound?
Its T/C is 100 % of control.

What about the T/C (dose: 200.0 mg/kg/injection, schedule: Q01DX001 (ip), vehicle: saline) of the same compound?
The T/C was 88 % of control.

How did the T/C (dose: 100.0 mg/kg/injection, schedule: Q01DX001 (ip), vehicle: carboxymethylcellulose (CMC)) turn out when `O=C(NCc1ccccc1)C(Cc1ccccc1)(Cc1ccccc1)C(=O)NCc1ccccc1` was run?
Its T/C is 92 % of control.

What about the T/C (dose: 200.0 mg/kg/injection, schedule: Q01DX001 (ip), vehicle: carboxymethylcellulose (CMC)) of the same compound?
Its T/C is 90 % of control.

And the T/C (dose: 400.0 mg/kg/injection, schedule: Q01DX001 (ip), vehicle: carboxymethylcellulose (CMC))?
Its T/C is 92 % of control.

`CC(=O)N(C)c1ccc(NC2=NCCO2)cc1` was tested. Which T/C [2] did it give?
The T/C was 98 % of control.

What about the T/C [4] of the same compound?
Its T/C is 101 % of control.

And the T/C [6]?
The T/C was 98 % of control.

How did the T/C [10] turn out when `CC(C)=C(B1OC(C)(C)C(C)(C)O1)B1OC(C)(C)C(C)(C)O1` was run?
Its T/C is 93 % of control.

And the T/C [11]?
Its T/C is 95 % of control.

And the T/C [12]?
Its T/C is 97 % of control.

Which T/C (dose: 100.0 mg/kg/injection, schedule: Q01DX001 (ip), vehicle: Klucel (hydroxypropylcellulose) (HPC)) does the source give for `O=C(O)C(CSCc1ccccc1)NSc1ccccc1[N+](=O)[O-]` (centres undefined) here?
Its T/C is 105 % of control.

And the T/C (dose: 100.0 mg/kg/injection, schedule: Q04DX003 (ip), vehicle: saline)?
Its T/C is 97 % of control.

What about the T/C (dose: 200.0 mg/kg/injection, schedule: Q01DX001 (ip), vehicle: Klucel (hydroxypropylcellulose) (HPC)) of the same compound?
Its T/C is 105 % of control.

What about the T/C (dose: 200.0 mg/kg/injection, schedule: Q04DX003 (ip), vehicle: saline) of the same compound?
Its T/C is 95 % of control.

What about the T/C (dose: 400.0 mg/kg/injection, schedule: Q01DX001 (ip), vehicle: Klucel (hydroxypropylcellulose) (HPC)) of the same compound?
Its T/C is 101 % of control.

And the T/C (dose: 400.0 mg/kg/injection, schedule: Q04DX003 (ip), vehicle: saline)?
The T/C was 106 % of control.

Which results are given for `O=C(CNCc1ccccc1)NC(Cc1ccccc1)c1ccccc1` (centres undefined)?
T/C [10]: 96 % of control; T/C [2]: 101 % of control; T/C [11]: 93 % of control; T/C [4]: 94 % of control; T/C [12]: 94 % of control; T/C [6]: 94 % of control

What does the source list for `CCN=C(c1ccc(NC(=O)c2ccc(C(=O)Nc3ccc(C(=NCC)N(CC)C(=O)Nc4ccc(OC)cc4)cc3)cc2)cc1)N(CC)C(=O)Nc1ccc(OC)cc1`?
T/C (dose: 2.25 mg/kg/injection, schedule: Q01DX015 (ip), vehicle: methylcellulose (MC)): 108 % of control; T/C (dose: 3.12 mg/kg/injection, schedule: Q01DX015 (ip), vehicle: methylcellulose (MC)): 101 % of control; T/C (dose: 4.5 mg/kg/injection, schedule: Q01DX015 (ip), vehicle: methylcellulose (MC)): 110 % of control; T/C (dose: 6.25 mg/kg/injection, schedule: Q01DX015 (ip), vehicle: methylcellulose (MC)): 124 % of control; T/C (dose: 12.5 mg/kg/injection, schedule: Q01DX015 (ip), vehicle: methylcellulose (MC)): 170 % of control

What does the source list for `O=S1(=O)C(Cl)=C(Cl)C2C3CC(C(Cl)C3Cl)C21` (centres undefined)?
T/C (dose: 50.0 mg/kg/injection, schedule: Q01DX009 (ip), vehicle: acetone): 95 % of control; T/C (dose: 100.0 mg/kg/injection, schedule: Q01DX009 (ip), vehicle: acetone): 93 % of control; T/C (dose: 100.0 mg/kg/injection, schedule: Q04DX003 (ip), vehicle: acetone): 92 % of control; T/C (dose: 200.0 mg/kg/injection, schedule: Q01DX009 (ip), vehicle: acetone): 98 % of control; T/C (dose: 200.0 mg/kg/injection, schedule: Q04DX003 (ip), vehicle: acetone): 101 % of control; T/C (dose: 400.0 mg/kg/injection, schedule: Q04DX003 (ip), vehicle: acetone): 92 % of control

With `O=C1c2ccccc2C(=O)c2c(Cl)ccc(O)c21` as the compound, how does the T/C [13] read?
Its T/C is 98 % of control.

What about the T/C [10] of the same compound?
Its T/C is 97 % of control.

What about the T/C [14] of the same compound?
Its T/C is 105 % of control.

What about the T/C [11] of the same compound?
Its T/C is 97 % of control.

And the T/C [15]?
Its T/C is 101 % of control.

What about the T/C [12] of the same compound?
The T/C was 96 % of control.

`O=C1OC(c2ccccc2)(c2ccccn2)c2ccccc21` (centres undefined) was tested. Which T/C [1] did it give?
Its T/C is 90 % of control.

What about the T/C [3] of the same compound?
Its T/C is 92 % of control.

And the T/C [5]?
The T/C was 88 % of control.

Which T/C [7] does the source give for `CP1CCC(O)(c2ccccc2)CC1` (centres undefined) here?
The T/C was 88 % of control.

And the T/C [8]?
Its T/C is 103 % of control.

What about the T/C [9] of the same compound?
The T/C was 95 % of control.

How did the T/C (dose: 100.0 mg/kg/injection, schedule: Q01DX001 (ip), vehicle: other) turn out when `Clc1ccc(Cl)c2c(Br)cncc12` was run?
The T/C was 98 % of control.

What about the T/C (dose: 200.0 mg/kg/injection, schedule: Q01DX001 (ip), vehicle: other) of the same compound?
The T/C was 98 % of control.

What about the T/C (dose: 400.0 mg/kg/injection, schedule: Q01DX001 (ip), vehicle: other) of the same compound?
The T/C was 93 % of control.

`CCCCNC(=O)NC(C(=O)OCC)C(=O)OCC` was tested. Which T/C [13] did it give?
Its T/C is 97 % of control.

And the T/C [10]?
Its T/C is 100 % of control.

And the T/C [14]?
Its T/C is 102 % of control.

And the T/C [11]?
The T/C was 100 % of control.

What about the T/C [15] of the same compound?
Its T/C is 96 % of control.

What about the T/C [12] of the same compound?
The T/C was 102 % of control.

With `CCCCCCCCCCCCCC[N+](C)(C)Cc1cc(=O)c(O)co1` as the compound, how does the T/C (dose: 12.5 mg/kg/injection, schedule: Q01DX015 (ip), vehicle: saline) read?
The T/C was 97 % of control.

And the T/C (dose: 25.0 mg/kg/injection, schedule: Q01DX015 (ip), vehicle: saline)?
Its T/C is 102 % of control.

What about the T/C (dose: 25.0 mg/kg/injection, schedule: Q04DX003 (ip), vehicle: saline with Tween-80) of the same compound?
Its T/C is 97 % of control.

And the T/C (dose: 50.0 mg/kg/injection, schedule: Q01DX015 (ip), vehicle: saline)?
The T/C was 96 % of control.

And the T/C (dose: 50.0 mg/kg/injection, schedule: Q04DX003 (ip), vehicle: saline with Tween-80)?
Its T/C is 101 % of control.

What about the T/C (dose: 100.0 mg/kg/injection, schedule: Q01DX015 (ip), vehicle: saline) of the same compound?
Its T/C is 106 % of control.

And the T/C [10]?
The T/C was 87 % of control.

What about the T/C [2] of the same compound?
Its T/C is 101 % of control.

Which results are given for `O=C(OCC1CC1)c1ccc(N=Nc2ccccc2)cc1`?
T/C (dose: 75.0 mg/kg/injection, schedule: Q04DX002 (ip), vehicle: Klucel (hydroxypropylcellulose) (HPC)): 102 % of control; T/C (dose: 150.0 mg/kg/injection, schedule: Q04DX002 (ip), vehicle: Klucel (hydroxypropylcellulose) (HPC)): 108 % of control; T/C (dose: 300.0 mg/kg/injection, schedule: Q04DX002 (ip), vehicle: Klucel (hydroxypropylcellulose) (HPC)): 105 % of control

Source: PubChem BioAssay AID248 (DTP/NCI, 2004)
